This is an account of results in publication PMC8120209, “Longitudinal evaluation of a novel BChE PET tracer as an early in vivo biomarker in the brain of a mouse model for Alzheimer disease” (Theranostics, 2021).

Design in all cases: Eurofins SafetyScreen44 radioligand displacement, inhibition of control specific binding
Experiment [1] has as its target T1, 5-HT2B(h) (Homo sapiens, UniProt P41595).
T1 construct: gene HTR2B
The experiment in a line: biochemical. The note with it: reference compound.

The target of experiment [2] is T2, adrenergic receptor α1A (Homo sapiens, UniProt P35348).
T2 construct: gene ADRA1A
T2 sequence (P35348 1-466): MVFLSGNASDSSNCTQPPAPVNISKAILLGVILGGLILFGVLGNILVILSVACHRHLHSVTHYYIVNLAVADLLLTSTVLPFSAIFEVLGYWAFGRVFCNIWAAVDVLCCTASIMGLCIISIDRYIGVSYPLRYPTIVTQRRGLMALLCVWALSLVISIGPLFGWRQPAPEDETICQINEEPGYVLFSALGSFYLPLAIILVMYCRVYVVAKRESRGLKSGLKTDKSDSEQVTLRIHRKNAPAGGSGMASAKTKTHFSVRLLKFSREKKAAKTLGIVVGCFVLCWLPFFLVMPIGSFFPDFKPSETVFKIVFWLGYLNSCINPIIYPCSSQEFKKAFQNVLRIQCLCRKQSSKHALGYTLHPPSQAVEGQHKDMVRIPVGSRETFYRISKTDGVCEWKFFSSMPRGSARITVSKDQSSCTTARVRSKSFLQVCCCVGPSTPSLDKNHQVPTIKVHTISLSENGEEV
The note with it: reference compound; binder.

Experiment [3] has as its target T2, adrenergic receptor α1A. Conditions: reference compound; binder. The source holds these as a separate data set.
Experiment [4] addresses T3, N neuronal α7 (h) (Homo sapiens, UniProt P36544).
T3 construct: gene CHRNA7
Conditions: reference compound; binder.

The target of experiment [5] is T3, N neuronal α7 (h). The note with it: reference compound; binder. This is another data set of the same source.
Experiment [6] concerns the target T4, M5(h) (Homo sapiens, UniProt P08912).
T4 construct: gene CHRM5
The experiment in a line: biochemical. The note with it: reference compound.

T3 sequence (P36544 whole entry): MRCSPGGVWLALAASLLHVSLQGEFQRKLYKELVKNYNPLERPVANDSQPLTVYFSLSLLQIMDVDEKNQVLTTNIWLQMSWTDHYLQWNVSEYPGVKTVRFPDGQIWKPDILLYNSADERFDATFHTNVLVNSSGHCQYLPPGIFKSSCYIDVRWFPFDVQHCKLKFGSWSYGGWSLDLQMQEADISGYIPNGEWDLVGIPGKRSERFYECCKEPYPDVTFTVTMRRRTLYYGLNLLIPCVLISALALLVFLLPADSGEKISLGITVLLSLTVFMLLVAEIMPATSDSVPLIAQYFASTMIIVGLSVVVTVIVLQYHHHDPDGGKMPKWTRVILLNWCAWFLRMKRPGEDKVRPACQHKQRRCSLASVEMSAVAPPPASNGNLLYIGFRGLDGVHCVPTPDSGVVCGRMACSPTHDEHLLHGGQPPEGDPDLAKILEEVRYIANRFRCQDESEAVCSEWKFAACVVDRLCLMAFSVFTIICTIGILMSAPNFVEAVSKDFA
T4 sequence (P08912 whole entry): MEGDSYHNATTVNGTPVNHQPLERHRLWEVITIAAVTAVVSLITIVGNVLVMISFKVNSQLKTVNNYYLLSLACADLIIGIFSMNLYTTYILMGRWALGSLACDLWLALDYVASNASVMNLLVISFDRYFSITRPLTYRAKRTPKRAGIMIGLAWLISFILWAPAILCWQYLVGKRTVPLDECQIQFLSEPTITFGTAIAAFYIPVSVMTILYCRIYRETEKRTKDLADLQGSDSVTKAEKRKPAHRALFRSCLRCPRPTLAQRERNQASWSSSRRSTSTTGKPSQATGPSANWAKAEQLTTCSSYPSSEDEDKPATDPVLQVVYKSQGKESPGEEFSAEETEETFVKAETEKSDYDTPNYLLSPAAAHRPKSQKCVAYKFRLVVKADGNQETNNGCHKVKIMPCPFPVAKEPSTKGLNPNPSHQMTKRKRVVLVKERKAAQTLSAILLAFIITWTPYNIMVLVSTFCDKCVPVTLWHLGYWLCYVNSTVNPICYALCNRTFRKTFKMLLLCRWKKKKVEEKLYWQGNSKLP
T1 sequence (P41595 whole entry): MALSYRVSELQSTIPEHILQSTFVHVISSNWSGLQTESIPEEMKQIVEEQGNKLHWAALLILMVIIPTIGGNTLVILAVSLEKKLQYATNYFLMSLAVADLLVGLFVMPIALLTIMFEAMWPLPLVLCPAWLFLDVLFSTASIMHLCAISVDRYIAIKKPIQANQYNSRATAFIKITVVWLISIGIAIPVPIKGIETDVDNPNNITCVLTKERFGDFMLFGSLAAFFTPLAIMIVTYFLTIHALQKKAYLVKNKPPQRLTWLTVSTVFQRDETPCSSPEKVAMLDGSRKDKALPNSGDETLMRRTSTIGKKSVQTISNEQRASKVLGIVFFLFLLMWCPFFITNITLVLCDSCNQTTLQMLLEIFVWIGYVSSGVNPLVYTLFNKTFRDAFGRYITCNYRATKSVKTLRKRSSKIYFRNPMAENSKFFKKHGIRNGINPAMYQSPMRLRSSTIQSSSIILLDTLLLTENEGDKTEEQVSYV

Regarding `COc1cc(CC(C)N)c(OC)cc1I` (racemic) [(±)DOI], affinity in experiment [1] was put at a Ki of 1.8 nM. This lies in the single-digit nanomolar range.

Compound `COc1cccc(OC)c1OCCNCC1COc2ccccc2O1` (stereo not drawn) [WB 4101] registered an IC50 in experiment [2] of 0.61 nM. This compound also yielded an inhibitory constant (Ki) in experiment [3] of 0.3 nM.

Regarding `Clc1ccc(C2CC3CCC2N3)cn1` (racemic) [(±)epibatidine], the IC50 in experiment [4] was found to be 86 nM. This compound also came in with a Ki in experiment [5] of 75 nM.

For `C[N+]1(C)CCC(OC(=O)C(c2ccccc2)c2ccccc2)CC1` [4-DAMP], in experiment [6], the Ki was 0.5 nM.
